How the values were obtained:
[1] = tested on: Elephantgrass; experiment: Test 9 postemergence; assay type: in vivo, Pennisetum purpureum; conditions: scale 0-100
Protocol: Plastic windowsill pots containing planting medium were seeded with bahiagrass, bindweed (Convolvulus spp), guinea grass (Panicum maximum), large crabgrass (Digitaria sanguinalis) and pigweed (Amaranthus spp). Individual 15-cm plastic pots contained sandbur (Cenchrus echinatus), Mikania cordata, Boston fern (Nephrolepis exalata), quackgrass (Agropyron repens), elephantgrass (Pennisetum purpureum) and sowthistle (Sonchus spp) plants.
Plants were treated postemergence with Compound I formulated in a non-phytotoxic solvent. Plants were visually rated 22 days after treatment (DAT). Injury and weed control ratings were based on the scale of 0 to 100 where 0 = no effect, 20 = minimal control and 100 = complete control.

[2] = tested on: Guineagrass; experiment: Test 11 windowsill flats, postemergence; assay type: in vivo, Panicum maximum; conditions: Postemergence 32 g/ha, 0.25% X-77 surfactant, scale 0-100
Protocol: (§1) Budded citrus seedlings were planted in 30-liter plastic pots which were also seeded with sandbur, guineagrass, narrowleaf panicum, common ragweed, yellow nutsedge, purple nutsedge and bindweed. Compound I was applied preemergence and postemergence to the weeds. Treatments were sprayed to simulate the trunk-to-trunk herbicide application method used in some citrus groves. The compound was also applied postemergence to weeds grown in windowsill flats. The flats were filled with planting medium and seeded with morningglory (Ipomoea spp.). purple nutsedge (Cyperus rotundus), pigweed (Amaranthus spp.), bindweed (Convolvulus spp.), narrowleaf panicum (Panicum maximum), common ragweed (Ambrosia artemisiifolia), sandbur (Cenchrus echinatus), itchgrass (Rottboellia exaltata), johnsongrass (Sorghum halepense), guineagrass (Panicum maximum), smooth crabgrass (Digitaria ischaemum), broadleaf signalgrass (Brachiaria platyphylla), bermudagrass (Cynodon dactylon), goosegrass (Eleusine indica), large crabgrass (Digitaria sanguinalis) and yellow nutsedge (Cyperus esculentus).
(§2) The compound was formulated and sprayed with 0.25% X-77 surfactant in water. Plants were visually rated 21 and 29 days after treatment and compared with appropriate controls. Injury ratings were based on the scale of 0 to 100, where 0 indicates no effect, 20 indicates minimum effect and 100 indicates complete control. […]

[3] = tested on: Narrowleaf panicum; experiment: Test 11 windowsill flats, postemergence; assay type: in vivo, Panicum maximum; conditions: Postemergence 32 g/ha, 0.25% X-77 surfactant, scale 0-100
Protocol: as §1, §2

[4] = tested on: Johnsongrass; experiment: Test 11 windowsill flats, postemergence; assay type: in vivo, Sorghum halepense; conditions: Postemergence 32 g/ha, 0.25% X-77 surfactant, scale 0-100
Protocol: as §1, §2

[5] = tested on: Annual ryegrass; experiment: Test 10 postemergence safety to crops and weed control; assay type: in vivo, Lolium multiflorum; conditions: 16 g/ha, scale 0-100
Protocol: The object of these tests was to evaluate the compound of this invention for postemergence safety to crops and weed control. Seedling and budded Macedine grapes were grown in 11.4-cm pots. Flax, green foxtail (Setaria viridis), "Morex" barley, wild oats (Avena fatua), "Era" wheat, annual ryegrass (Lolium multiflorum), wild radish (Raphanus raphanistrum), rape, sunflower, chickweed (Stellaria media) and wild buckwheat (Polygonum convolvulus) were seeded in windowsill pots.
The plants were sprayed postemergence with Compound I in a non-phytotoxic solvent. Plants were visually rated 15 and 27 days after treatment (DAT). Injury and weed control ratings were based on the scale of 0 to 100 where 0 = no effect, 20 minimal control and 100 = complete control.

[6] = tested on: Mikania cordata; experiment: Test 4 plantation crop weeds, postemergence; assay type: in vivo; conditions: scale 0-100
Text: (§3) The object of this test was to evaluate the efficacy of the compound of this invention on weeds that infest some plantation crops at different growth stages of the weeds. Asystasia intrusa, Mikania cordata, goldenrod Solidago spp, Boston fern Nephrolepis exalata, and lalang Imparata cylindrica were planted in 15-cm plastic pots. Plants were sprayed postemergence with Compound I in a non-phytotoxic solvent. The Asystasia plants ranged in growth from 4 leaves to 9 leaves and very branched, Mikania had 6 leaves to vining, the goldenrod was branching and the Boston fern was growing vigorously. The degree of weed control was visually rated 20 to 24 days after treatment (DAT). Control ratings are based on the scale of 0 to 100 where 0 = no effect, 20 = minimal control and 100 = complete control. Variations in the results of the tests could be due to the fact that the tests were run at different times of the year or due to the stage of growth of the weeds.

[7] = tested on: Asystasia intrusa; experiment: Test 4 plantation crop weeds, postemergence; assay type: in vivo; conditions: scale 0-100; for Control Rating 24 DAT: Table 4, at 4-leaf stage
Text: as §3

[8] = tested on: Buckhorn plantain; experiment: Test 7 postemergence; assay type: in vivo, Plantago lanceolata; conditions: scale 0-100
Protocol: Individual 11.4-cm plastic pots filled with planting medium were seeded with rape, wild radish (Raphanus raphanistruna). tansy mustard (Descurainia pinnata), ball mustard (Neslia paniculata), black mustard (Brassica nigra), yellow mustard, brown mustard, lentils, safflower, flax, sunflower, peanut, vetch, alfalfa, field bean, pea, violet (Viola spp), Kochia (Kochia spp), Russian thistle (Salsola spp), Matricaria spp, groundsel (Senecio spp), shepherdspurse (Capsella bursa-pastoris), nightshade (Solanum spp), sowthistle (Sonchus spp), sugar beet, wheat, "Bonanza" barley and "Morex" barley, Kentucky bluegrass (Poa pratensis), red clover (Trifolium pratense), dandelion (Taraxacum spp) and buckhorn plantain (Plantago lanceolata).
Plants were treated postemergence with the compound formulated with a non-phytotoxic carrier. Plants were visually rated 18 days after treatment (DAT). Response ratings were based on the scale of 0 to 100 where 0 = no effect, 20 = minimal injury and 100 = complete control.

[9] = Table 6, profusely branching, 8 g/ha
[10] = Table 6, profusely branching, 16 g/ha
[11] = Table 6, profusely branching, 32 g/ha
[12] = Table 6, profusely branching, 64 g/ha

COC(=O)c1cccnc1S(=O)(=O)NC(=O)Nc1nc(OC)cc(OC)n1 [Compound I, 2-[[(4,6-dimethoxypyrimidin-2-yl)aminocarbonyl]aminosulfonyl]-3-pyridinecarboxylic acid, methyl ester]
Plant Injury Rating 22 DAT ([1]; 8 g/ha): 0
Plant Injury Rating 22 DAT ([1]; 16 g/ha): 50
Plant Injury Rating 22 DAT ([1]; 32 g/ha): 70
Injury ratings [2]: 100
Injury ratings [3]: 90
Injury ratings [4]: 100
Plant Injury Rating 15 DAT [5]: 100
Control Rating 20 DAT ([6]; Table 5, at 6 to 8-leaf stage, 8 g/ha): 0
Control Rating 20 DAT ([6]; Table 5, at 6 to 8-leaf stage, 16 g/ha): 0
Control Rating 20 DAT ([6]; Table 5, at 6 to 8-leaf stage, 32 g/ha): 0
Control Rating 20 DAT ([6]; Table 5, at 6 to 8-leaf stage, 64 g/ha): 30
Control Rating 20 DAT [6, 9]: 0
Control Rating 20 DAT [6, 10]: 0
Control Rating 20 DAT [6, 11]: 0
Control Rating 20 DAT [6, 12]: 0
Control Rating 22 DAT ([6]; Table 7, vining and profusely branching, 8 g/ha): 0
Control Rating 22 DAT ([6]; Table 7, vining and profusely branching, 16 g/ha): 0
Control Rating 22 DAT ([6]; Table 7, vining and profusely branching, 32 g/ha): 0
Control Rating 22 DAT ([6]; Table 7, vining and profusely branching, 64 g/ha): 20
Control Rating 22 DAT ([6]; Table 8, 16 g/ha): 0
Control Rating 22 DAT ([6]; Table 8, 32 g/ha): 0
Control Rating 22 DAT ([6]; Table 8, 64 g/ha): 20
Control Rating 24 DAT ([7]; 4 g/ha): 20
Control Rating 24 DAT ([7]; 8 g/ha): 30
Control Rating 24 DAT ([7]; 16 g/ha): 40
Control Rating 24 DAT ([7]; 32 g/ha): 50
Control Rating 24 DAT ([7]; 64 g/ha): 60
Control Rating 20 DAT ([7]; Table 5, at 6 to 9-leaf stage, 8 g/ha): 0
Control Rating 20 DAT ([7]; Table 5, at 6 to 9-leaf stage, 16 g/ha): 60
Control Rating 20 DAT ([7]; Table 5, at 6 to 9-leaf stage, 32 g/ha): 90
Control Rating 20 DAT ([7]; Table 5, at 6 to 9-leaf stage, 64 g/ha): 100
Control Rating 20 DAT [7, 9]: 0
Control Rating 20 DAT [7, 10]: 0
Control Rating 20 DAT [7, 11]: 0
Control Rating 20 DAT [7, 12]: 30
Plant Injury Rating 18 DAT ([8]; 16 g/ha): 30
Plant Injury Rating 18 DAT ([8]; 32 g/ha): 50
